Laboratory results from patent US9604933B2, “Pyrazolochalcones as potential anticancer agents” (COUNCIL OF SCIENTIFIC AND INDUSTRIAL RESEARCH, priority 2013, dated 2017).
Like-named read-outs stand apart in the source and are kept apart here.

Columns and labels:
[1] = system: 786-0; test: NCI SRB cytotoxicity, renal 786-0; type: cell-based; settings: Homo sapiens, 48 h exposure
Procedure: (§1) The pyrazolochalcones (7e, 8e, 10e, 11e, 12e, 13e and 8f) have been tested against fifty nine human tumor cell lines derived from nine cancer types (leukemia, non-small cell lung cancer, colon cancer, CNS cancer, melanoma, ovarian cancer, renal cancer, prostate cancer and breast cancer) as per the NCI protocol. For each compound, dose response curves for individual cell lines have been measured at a minimum of five concentrations at 10 fold dilutions. A protocol of 48 h continuous drug exposure has been used, and a sulforhodamine B (SRB) protein assay has been used to estimate cell viability or growth. The concentration for 50% cell growth inhibition (GI50), 50% cell death (LC50, 50% growth) and total cell growth inhibition (TGI, 0% growth) values were tabulated (Table-1). DMSO was used as control to calculate the values of GI50, LC50 and TGI. The compounds 7e, 8e, 10e, 11e, 12e, 13e and 8f has been evaluated for their in vitro cytotoxicity in […] cell lines from nine human cancer types of leukemia (K-562, SR), non-small cell lung (Hop-62, NCI-H226, NCI-H522), colon (HCT-116, HCT-15, HCC-2998), CNS (SF-539), melanoma (SK-MEL-5, UACC-62, M14), ovarian (IGROV1), renal (A498), prostate (PC3) and breast (BT-549, MDA-MB-435, HS578T) origin. The results are expressed as percent of cell growth determined relative to that of untreated control cells (Table 2).

[2] = system: MDA-MB-435; test: NCI SRB cytotoxicity, melanoma MDA-MB-435; type: cell-based; settings: Homo sapiens, Melanoma panel MDA-MB-435, 48 h exposure
Procedure: as §1

[3] = system: ACHN; test: NCI SRB cytotoxicity, renal ACHN; type: cell-based; settings: Homo sapiens, 48 h exposure
Procedure: as §1

[4] = system: human tumor cell lines; test: NCI SRB cytotoxicity, all fifty nine human tumor cell lines; type: cell-based; set-up: Log10 TGI mean graph midpoint (MG_MID): unit not given here; settings: for GI50: Homo sapiens
Procedure: as §1
The mean graph midpoint values of Log10 TGI and Log10 LC50 as well as Log10 GI50 for compounds 7e, 8e, 10e, 11e, 12e, 13e and 8f is listed in Table-3. […] The mean graph mid points of Log10 TGI and Log10, LC50 have shown similar pattern to the log10 GI50 mean graph mid points.

[5] = system: COLO-205; test: NCI SRB cytotoxicity, colon COLO-205; type: cell-based; settings: Homo sapiens, 48 h exposure
Procedure: as §1

[6] = system: SK-MEL-5; test: NCI SRB cytotoxicity, melanoma SK-MEL-5; type: cell-based; settings: Homo sapiens, 48 h exposure
Procedure: as §1

[7] = system: SW-620; test: NCI SRB cytotoxicity, colon SW-620; type: cell-based; settings: Homo sapiens, 48 h exposure
Procedure: as §1

[8] = system: OVCAR-4; test: NCI SRB cytotoxicity, ovarian OVCAR-4; type: cell-based; settings: Homo sapiens, 48 h exposure
Procedure: as §1

[9] = system: LOX IMVI; test: NCI SRB cytotoxicity, melanoma LOX IMVI; type: cell-based; settings: Homo sapiens, 48 h exposure
Procedure: as §1

[10] = system: MDA-MB-435; test: NCI SRB cytotoxicity, breast panel MDA-MB-435; type: cell-based; settings: Homo sapiens, 48 h exposure
Procedure: as §1

[11] = system: NCI-H522; test: NCI SRB cytotoxicity, non-small cell lung NCI-H522; type: cell-based; settings: Homo sapiens, 48 h exposure
Procedure: as §1

[12] = system: HCC-2998; test: NCI SRB cytotoxicity, colon HCC-2998; type: cell-based; settings: Homo sapiens, 48 h exposure
Procedure: as §1

[13] = system: NCI-H226; test: NCI SRB cytotoxicity, non-small cell lung NCI-H226; type: cell-based; settings: Homo sapiens, 48 h exposure
Procedure: as §1

[14] = system: M14; test: NCI SRB cytotoxicity, melanoma M14; type: cell-based; settings: Homo sapiens, 48 h exposure
Procedure: as §1

[15] = system: SR; test: NCI SRB cytotoxicity, leukemia SR; type: cell-based; settings: Homo sapiens, 48 h exposure
Procedure: as §1

[16] = system: NCIH322M; test: NCI SRB cytotoxicity, non-small cell lung NCIH322M; type: cell-based; settings: Homo sapiens, NCI-H322M, 48 h exposure
Procedure: as §1

[17] = system: KM12; test: NCI SRB cytotoxicity, colon KM12; type: cell-based; settings: Homo sapiens, 48 h exposure
Procedure: as §1

[18] = system: SNB-19; test: NCI SRB cytotoxicity, CNS SNB-19; type: cell-based; settings: Homo sapiens, 48 h exposure
Procedure: as §1

[19] = system: BT-549; test: NCI SRB cytotoxicity, breast BT-549; type: cell-based; settings: Homo sapiens, 48 h exposure
Procedure: as §1

[20] = system: OVCAR-5; test: NCI SRB cytotoxicity, ovarian OVCAR-5; type: cell-based; settings: Homo sapiens, 48 h exposure
Procedure: as §1

[21] = system: HOP-62; test: NCI SRB cytotoxicity, non-small cell lung HOP-62; type: cell-based; settings: Homo sapiens, 48 h exposure
Procedure: as §1

[22] = system: HT29; test: NCI SRB cytotoxicity, colon HT29; type: cell-based; settings: Homo sapiens, HT-29, 48 h exposure
Procedure: as §1

[23] = system: CAKI-1; test: NCI SRB cytotoxicity, renal CAKI-1; type: cell-based; settings: Homo sapiens, 48 h exposure
Procedure: as §1

[24] = system: MALME-3M; test: NCI SRB cytotoxicity, melanoma MALME-3M; type: cell-based; settings: Homo sapiens, 48 h exposure
Procedure: as §1

[25] = system: HCT-15; test: NCI SRB cytotoxicity, colon HCT-15; type: cell-based; settings: Homo sapiens, 48 h exposure
Procedure: as §1

[26] = system: A498; test: NCI SRB cytotoxicity, renal A498; type: cell-based; settings: Homo sapiens, 48 h exposure
Procedure: as §1

[27] = system: SK-MEL-28; test: NCI SRB cytotoxicity, melanoma SK-MEL-28; type: cell-based; settings: Homo sapiens, 48 h exposure
Procedure: as §1

[28] = system: SF-268; test: NCI SRB cytotoxicity, CNS SF-268; type: cell-based; settings: Homo sapiens, 48 h exposure
Procedure: as §1

[29] = system: IGROV1; test: NCI SRB cytotoxicity, ovarian IGROV1; type: cell-based; settings: Homo sapiens, IGROV-1, 48 h exposure
Procedure: as §1

[30] = system: RPMI-8226; test: NCI SRB cytotoxicity, leukemia RPMI-8226; type: cell-based; settings: Homo sapiens, 48 h exposure
Procedure: as §1

[31] = system: CNS; test: NCI SRB cytotoxicity, CNS panel average; type: cell-based, human; settings: average of cell lines
Procedure: as §1
(§2) Each cancer type represents the average of six to eight different cancer cell lines.

[32] = system: OVCAR-8; test: NCI SRB cytotoxicity, ovarian OVCAR-8; type: cell-based; settings: Homo sapiens, 48 h exposure
Procedure: as §1

[33] = system: Breast; test: NCI SRB cytotoxicity, breast panel average; type: cell-based, human; settings: average of cell lines
Procedure: as §1, §2

[34] = system: SK-OV-3; test: NCI SRB cytotoxicity, ovarian SK-OV-3; type: cell-based; settings: Homo sapiens, 48 h exposure
Procedure: as §1

[35] = system: T-47D; test: NCI SRB cytotoxicity, breast T-47D; type: cell-based; settings: Homo sapiens, T47D, 48 h exposure
Procedure: as §1

[36] = Homo sapiens, read-out: Log10 GI50 (concentration in mol/L causing 50% growth inhibition) (converted)
[37] = Homo sapiens, read-out: Log10 LC50 (concentration in mol/L causing 50% cell death) (converted)

SMILES: COc1cc(-c2cc(/C=C/C(=O)c3ccc(Cl)c(Cl)c3)[nH]n2)cc(OC)c1OC [12e, (E)-1-(3,4-dichlorophenyl)-3-(3-(3,4,5-trimethoxyphenyl)-1H-pyrazol-5-yl)prop-2-en-1-one]
- GI50 [1]: 10.1 µM
- GI50 [2]: 5.65 µM
- GI50 [3]: 21.4 µM
- GI50 ([4]; across fifty nine cell lines in nine cell panels, read-out: GI50 value range): 0.18 to 29.2 µM
- GI50 ([4]; against human tumor cell lines, read-out: Log10 GI50 mean graph midpoint (MG_MID) (converted)): 6.61 µM
- cytotoxicity ([4]; against cancer cell lines, in words): significant cytotoxicity
- Log10 TGI mean graph midpoint (MG_MID) ([4]; against human tumor cell lines): −4.35
- LC50 ([4]; against human tumor cell lines, read-out: Log10 LC50 mean graph midpoint (MG_MID) (converted)): 89.1 µM
- GI50 [5]: 1260 nM
- GI50 [6]: 13.4 µM
- GI50 [7]: 8.63 µM
- GI50 [8]: 10.8 µM
- GI50 [9]: 3.39 µM
- GI50 [10]: 1980 nM
- GI50 [11]: 1330 nM
- GI50 [12]: 9.56 µM
- GI50 [13]: 18.6 µM
- GI50 [14]: 18.2 µM
- GI50 [15]: 390 nM
- GI50 [16]: 14.5 µM
- GI50 [17]: 3.37 µM
- GI50 [18]: 9.83 µM
- GI50 [19]: 8.4 µM
- GI50 [20]: 20.5 µM
- GI50 [21]: 1720 nM
- GI50 [22]: 1150 nM
- GI50 [23]: 16.9 µM
- GI50 [24]: 29.2 µM
- GI50 [25]: 4.29 µM
- GI50 [26]: 5.89 µM
- GI50 [27]: 18.5 µM
- GI50 [28]: 13.7 µM
- GI50 [29]: 24 µM
- GI50 [30]: 530 nM
- GI50 [31, 36]: 8.51 µM
- LC50 [31, 37]: 87.1 µM
- Log10 TGI (concentration in mol/L causing total growth inhibition (0% growth)) [31]: −4.25 mol/L
- GI50 [32]: 6.3 µM
- GI50 [33, 36]: 4.47 µM
- CC50 [33, 37]: 0.0001 mol/L
- Log10 TGI (concentration in mol/L causing total growth inhibition (0% growth)) [33]: −4.41 mol/L
- GI50 [34]: 4.19 µM
- GI50 [35]: 1660 nM
